Assays:
alkaline phosphatase = assay: Control: alkaline phosphatase activity in solution; type: biochemical
PC3 cells = assay: PC3 cell retraction assay; type: cell-based
Protocol: FIGS. 9A-9G. A. PC3 cells pretreated for 15 min with the indicated concentrations of compound 1 or compound 2 were stimulated with 0.5 μg/mL ephrin-A1 Fc (+) or Fc as a control (−) for 20 min in the continued presence of the compounds. EphA2 immunoprecipitates were probed with anti-phosphotyrosine antibody (PTyr) and reprobed for EphA2. C indicates immunoprecipitations performed with control antibodies. B. Histogram showing the levels of EphA2 phosphorylation normalized to the amount of immunoprecipitated EphA2. Error bars indicate standard error from 3 experiments. Receptor phosphorylation levels were compared with those in the ephrin-stimulated cells by one-way ANOVA and Dunnett's post test. *P<0.05 and *P<0.01. C. PC3 cells stimulated with compound 1 as in (A) were stained with rhodamine-phalloidin to label actin filaments and DAPI to label nuclei. DMSO was used as a control (0 μM). D. Histogram showing the mean area of the cells normalized to the value obtained for the Fc stimulated cells. E. Histogram showing the mean percentage of retracting cells. Cells having rounded shape and area less than 20% of the mean value obtained for the Fc stimulated cells were scored as retracting. Error bars in D and E indicate standard error from 3 experiments. F-H. The same experiments as in (C-E) were performed using compound 2. The areas occupied by the cells and the percentage of cell retraction under different conditions were compared to those in the Fc control condition by one-way ANOVA and Dunnett's post test. *P<0.05 and **P<0.01. Scale bars in (C) and (F)=50 μm.
PC3 Cell Retraction Assay—PC3 cells were plated on glass coverslips and grown in RPMI 1640 medium (Mediatech, Inc, Herndon, Va.) with 10% FBS and Pen/Strep. After 17 hours the cells were starved for 3 hours in 0.5% FBS in DMEM and then incubated for 40 min with the compounds or DMSO, before stimulation for 10 min with 0.5 μg/mL of ephrin-A1 Fc or Fc as a control. The cells were fixed in 4% formaldehyde in PBS, permeabilized in 0.5% Triton X-100 in TBS and stained with rhodamine-conjugated phalloidin (Invitrogen, Carlsbad, Calif.) and DAPI. Cells were photographed under a fluorescence microscope and cell area was measured in a blinded manner using ImageJ software. Cells having rounded shape and area equal or below 20% of the area of Fc control-treated cells were considered as retracting.

Structure (SMILES)	inhibition of alkaline phosphatase activity (control) (alkaline phosphatase)	cell morphology in the absence of ephrin treatment (PC3 cells)	decrease in cell spreading caused by ephrin-A1 Fc (PC3 cells)	increase in the percentage of rounded cells caused by ephrin-A1 Fc (PC3 cells)
Cc1ccc(C)n1-c1ccc(C(=O)O)c(O)c1 [compound 1, 4-(2,5-dimethyl-pyrrol-1-yl)-2-hydroxy-benzoic acid]	does not inhibit	did not affect	blocked	blocked
Cc1ccc(C)n1-c1ccc(O)c(C(=O)O)c1 [compound 2, 5-(2,5 dimethyl-pyrrol-1-yl)-2-hydroxy-benzoic acid]		did not affect	blocked	blocked

Reference: patent US20100256214A1, “EPH RECEPTOR LIGANDS AND METHODS OF USE” (Burnham Institute for Medical Research, priority 2009, published 2010)
